The values below come from patent US20040137514A1, “Use of antibodies against specific mhc-peptide complexes” (priority 2000, published 2004).

For assay [1], the system named is T cells of RA patients. As to conditions: cited from earlier work.
In assay [2] the test system is BLCL. Description: FACS control: peptide binding to BLCL. Set-up: species or system human. Particulars: data not shown. How it is done: Briefly, 10^6 BLCL were incubated with 40 μg peptide in 500 μl DMEM/HAM's F12 or blank medium for 4 h at 37° C. After this incubation, the cells were washed with PBS, 2% FCS, 0.02% sodiumazide. Approximately 2×10^5 cells were incubated for 1 h, 4° C. with 130 μl MAb-containing hybridoma supernatant plus 20 μl PBS, 20% FCS, 0.02% sodiumazide. After washing the cells twice with PBS, 2% FCS, 0.02% sodiumazide, they were incubated for 1 h, 4° C. with 50 μl PBS, 20% FCS, 0.02% sodiumazide plus 10 μl Goat anti-mouseIg/FITC (Beckton & Dickinson). Subsequently, the cells were washed three times with PBS, 2% FCS, 0.02% sodiumazide and finally resuspended in 400 μl PBS, 2% p-formaldehyde. As a control for peptide binding, cells were incubated with biotinylated HC gp39263-275 and stained with streptavidin/PE (Beckton & Dickinson). As a control for HLA-DR expression, staining was performed with anti-HLA/DR, L243 (purified Ig from hybridoma ATCC HB 55). Stained cells were analyzed with the FACScan™ (Beckton & Dickinson). In all cases, forward and side scatter analysis was applied to eliminate dead cells and debris from further analysis.
These homozygous BLCL were loaded with HC gp-39263-275 and subsequently stained with ORG38948 12A. In a series of experiments, ORG38948 12A stains HC gp-39^263-275 in the context of both DRB1*0401 and DRB1*0407 (Table V). […]

The conditions of assay [3]: BALB/c mice; cited from earlier work.
The conditions of assay [4]: intranasal administration prior to immunization; cited from earlier work.
The conditions of assay [5]: DBA/1 mice, semi-therapeutic regime; cited from earlier work.

In the case of “326-338: peptide 326-338 of HC gp-39 (VGYDDQESVKSKV; HC gp-39 AA 326-338; listed as Homo sapiens)”, the “recognition by T cells of RA patients” value in assay [1] is recorded as “recognized”.

For RSFTLASSETG, the “binding of peptide to the BLCL” value in assay [2] is recorded as “binds to the BLCL”.

“human cartilage glycoprotein-39 [HC gp-39]”: the outcome of immunisation in assay [3] is recorded as “development of a chronic, relapsing arthritis”. In assay [4], the DTH responses entry is given as “complete abrogation of DTH responses” and the disease development result was “protection from or delayed onset of the disease”. Further, the “incidence and severity of collagen type II induced arthritis” value in assay [5] was “could reduce”.
